Laboratory results reported in article PMC8398451, “Molecular Engineering of Curcumin, an Active Constituent of Curcuma longa L. (Turmeric) of the Family Zingiberaceae with Improved Antiproliferative Activity” (Plants, 2021).
Like-named read-outs stand apart in the source and are kept apart here.

Legend:
HOP-92 = experiment: NCI antiproliferative SRB assay, Non-Small Cell Lung Cancer panel; format: cell-based; settings: for GI50 / CC50: Homo sapiens; for CC50: read-out: LC50 (the source's name)
EGFR = target: T1, EGFR (Homo sapiens, UniProt P00533); experiment: Spectrophotometric assay for EGFR tyrosine kinase inhibition in A431 cells; format: cell-based; settings: absorbance at 540 nm
T1 construct: tested for anti-EGFR activity in human A431 cells, which express high levels of EGFR protein; endogenous in cells; host or cells: human A431 cells
T1 sequence (P00533 25-1210): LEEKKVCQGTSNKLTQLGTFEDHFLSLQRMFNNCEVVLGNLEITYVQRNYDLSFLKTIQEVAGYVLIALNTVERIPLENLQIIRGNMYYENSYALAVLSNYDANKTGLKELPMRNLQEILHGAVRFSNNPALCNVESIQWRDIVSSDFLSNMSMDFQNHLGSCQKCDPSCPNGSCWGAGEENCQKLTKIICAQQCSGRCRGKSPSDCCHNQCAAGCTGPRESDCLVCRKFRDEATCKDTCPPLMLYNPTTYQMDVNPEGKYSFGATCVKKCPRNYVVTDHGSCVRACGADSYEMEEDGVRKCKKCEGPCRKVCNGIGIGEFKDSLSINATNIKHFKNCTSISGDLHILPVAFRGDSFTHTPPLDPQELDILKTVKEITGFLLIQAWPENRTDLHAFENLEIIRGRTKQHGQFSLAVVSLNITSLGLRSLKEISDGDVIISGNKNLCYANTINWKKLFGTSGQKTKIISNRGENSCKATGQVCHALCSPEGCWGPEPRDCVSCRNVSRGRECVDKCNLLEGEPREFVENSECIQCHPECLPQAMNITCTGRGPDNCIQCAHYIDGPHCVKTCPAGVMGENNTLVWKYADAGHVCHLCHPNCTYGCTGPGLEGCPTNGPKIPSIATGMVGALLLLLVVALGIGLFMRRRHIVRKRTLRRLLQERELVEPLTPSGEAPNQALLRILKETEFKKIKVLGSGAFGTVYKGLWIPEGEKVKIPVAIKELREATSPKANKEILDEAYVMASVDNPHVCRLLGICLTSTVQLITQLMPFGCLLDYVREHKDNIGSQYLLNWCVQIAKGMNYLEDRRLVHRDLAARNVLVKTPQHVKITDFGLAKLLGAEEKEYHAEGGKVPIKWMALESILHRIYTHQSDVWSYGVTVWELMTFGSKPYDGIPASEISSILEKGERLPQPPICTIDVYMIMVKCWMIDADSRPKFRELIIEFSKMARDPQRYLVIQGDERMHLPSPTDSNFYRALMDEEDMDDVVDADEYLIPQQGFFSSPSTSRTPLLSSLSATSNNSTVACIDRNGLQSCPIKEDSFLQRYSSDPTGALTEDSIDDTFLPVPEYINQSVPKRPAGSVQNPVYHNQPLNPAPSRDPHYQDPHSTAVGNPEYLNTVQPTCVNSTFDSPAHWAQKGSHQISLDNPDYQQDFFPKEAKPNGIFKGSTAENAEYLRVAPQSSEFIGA

Compound | TGI (HOP-92; 5-dose 0.01-100 µM) [µM] | GI50 (HOP-92; 5-dose 0.01-100 µM, read-out: GI50) [µM] | CC50 (HOP-92; 5-dose 0.01-100 µM) [µM] | %GI (HOP-92; one dose 10 µM) [%] | GP (growth percent) (HOP-92; one dose 10 µM) | IC50 (EGFR) [µM] | GI50 (HOP-92) [µM]
COc1ccc(NC(=O)n2nc(/C=C/c3ccc(O)c(OC)c3)cc2/C=C/c2ccc(O)c(OC)c2)cc1 [3b] | >100 | 7.77 | > 100 | 10.93 | 89.07 | 3.89 | –
COc1cc(/C=C/c2cc(/C=C/c3ccc(O)c(OC)c3)n(C(=O)Nc3ccc(C(F)(F)F)cc3)n2)ccc1O [3c] | 6.79 | – | > 100 | – | – | 4.18 | 2.35
